Experimental data: patent publication US20130344026A1, “Dimeric Smac Mimetics” (priority 2009, published 2013)
*1 amine or outer side, *2 acyl side, *3 side chain or, on linkers, in order; H or OH if unused. Where a SMILES comes first, the peptide text is derived from it. Bridges are numbered along the chain shown (N, C = ends). Roman numbers before positions name the chains, in order. [ ]: non-standard residue; d: D form. Piperazine(1,4-diyl) = C1CN([*:2])CCN1[*:1]; NH(CH2)8NH = C(CCCCN[*:2])CCCN[*:1]; Chg = N[C@H](C(=O)O)C1CCCCC1; Tle = CC(C)(C)[C@H](N)C(=O)O; NMeA = CN[C@@H](C)C(=O)O

Test system: HCC461
Assay: cell viability assay in HCC461, compound alone
Type: cell-based
Conditions: HCC461, HCC461; Tables 15-18; read-out: IC50 (uM) in cell viability assay in HCC461

Row | Structure (SMILES) | IC50
1 | CN[C@@H](C)C(=O)N[C@H](C(=O)N1CCC[C@H]1C(=O)N[C@H](C(=O)NCCC#CC#CCCNC(=O)[C@@H](NC(=O)[C@@H]1CCCN1C(=O)[C@@H](NC(=O)[C@H](C)NC)C(C)(C)C)C1CCCCC1)C1CCCCC1)C(C)(C)C [Compound P4-1] | 0.08 µM
2 | CN[C@@H](C)C(=O)N[C@H](C(=O)N1CCC[C@H]1C(=O)N[C@H](CNC(=O)C1CCC(C(=O)NC[C@@H](NC(=O)[C@@H]2CCCN2C(=O)[C@@H](NC(=O)[C@H](C)NC)C(C)(C)C)C2CCCCC2)CC1)C1CCCCC1)C(C)(C)C (stereo partly shown) [Compound P4-6] | 0.07 µM
3 | CN[C@@H](C)C(=O)N[C@H](C(=O)N1CCC[C@H]1C(=O)N[C@H](C(=O)NCCCCCCCCNC(=O)[C@@H](NC(=O)[C@@H]1CCCN1C(=O)[C@@H](NC(=O)[C@H](C)NC)C(C)(C)C)C1CCCCC1)C1CCCCC1)C(C)(C)C [Compound P4-7] (I: H-[NMeA][Tle]P[Chg] / II: H-[NMeA][Tle]P[Chg]; linker I:C-II:C via NH(CH2)8NH) | 0.205 µM
4 | CN[C@@H](C)C(=O)N[C@H](C(=O)N1CCC[C@H]1C(=O)N[C@H](CNC(=O)c1ccc(C(=O)NC[C@@H](NC(=O)[C@@H]2CCCN2C(=O)[C@@H](NC(=O)[C@H](C)NC)C(C)(C)C)C2CCCCC2)cc1)C1CCCCC1)C(C)(C)C [Compound P4-8] | 0.2 µM
5 | CN[C@@H](C)C(=O)N[C@H](C(=O)N1CCC[C@H]1C(=O)N[C@H](CNC(=O)c1cc(N)cc(C(=O)NC[C@@H](NC(=O)[C@@H]2CCCN2C(=O)[C@@H](NC(=O)[C@H](C)NC)C(C)(C)C)C2CCCCC2)c1)C1CCCCC1)C(C)(C)C [Compound P4-9] | 0.53 µM
6 | CN[C@@H](C)C(=O)N[C@H](C(=O)N1CCC[C@H]1C(=O)N[C@H](C(=O)N1CCN(C(=O)[C@@H](NC(=O)[C@@H]2CCCN2C(=O)[C@@H](NC(=O)[C@H](C)NC)C(C)(C)C)C2CCCCC2)CC1)C1CCCCC1)C(C)(C)C [Compound P4-10] (I: H-[NMeA][Tle]P[Chg] / II: H-[NMeA][Tle]P[Chg]; linker I:C-II:C via Piperazine(1,4-diyl)) | 0.26 µM
7 | CN[C@@H](C)C(=O)N[C@H](C(=O)N1CCC[C@H]1C(=O)N[C@H](CNC(=O)c1cccc(C(=O)NC[C@@H](NC(=O)[C@@H]2CCCN2C(=O)[C@@H](NC(=O)[C@H](C)NC)C(C)(C)C)c2ccccc2)c1)c1ccccc1)C(C)(C)C [Compound P4-11] | 0.068 µM
8 | CN[C@@H](C)C(=O)N[C@H](C(=O)N1CCC[C@H]1C(=O)N[C@H](CNC(=O)c1ccc(C(=O)NC[C@@H](NC(=O)[C@@H]2CCCN2C(=O)[C@@H](NC(=O)[C@H](C)NC)C(C)(C)C)c2ccccc2)cc1)c1ccccc1)C(C)(C)C [Compound P4-12] | 0.038 µM

Same assay, conditions: HCC461, HCC461 cells, compound alone; read-out: IC50 (uM) in cell viability assay in HCC461

Row | Structure (SMILES) | IC50
9 | CC[C@H](C)C(NC(=O)[C@H](C)NC)C(=O)N1C[C@@H](NC(=O)c2cccc(C(=O)N[C@H]3C[C@@H](C(=O)N(C)[C@H](C)c4ccccc4)N(C(=O)C(NC(=O)[C@H](C)NC)[C@@H](C)CC)C3)c2)C[C@H]1C(=O)N(C)C(C)c1ccccc1 (stereo partly shown) [Compound P3-68] | 0.025 µM
10 | CC[C@H](C)[C@H](NC(=O)[C@H](C)NC)C(=O)N1C[C@@H](NC(=O)c2cc(C(=O)N[C@H]3C[C@@H](C(=O)N[C@H](C)c4ccccc4)N(C(=O)[C@@H](NC(=O)[C@H](C)NC)[C@@H](C)CC)C3)[nH]n2)C[C@H]1C(=O)N[C@H](C)c1ccccc1 [Compound P3-69] | 0.017 µM
11 | CN[C@@H](C)C(=O)N[C@H](C(=O)N1C[C@@H](NC(=O)c2cc(N)cc(C(=O)N[C@H]3C[C@@H](C(=O)NCc4ccc(F)cc4)N(C(=O)[C@@H](NC(=O)[C@H](C)NC)C(C)(C)C)C3)c2)C[C@H]1C(=O)NCc1ccc(F)cc1)C(C)(C)C [Compound P3-71] | 0.035 µM
12 | CN[C@@H](C)C(=O)N[C@H](C(=O)N1C[C@@H](NC(=O)/C=C/C(=O)N[C@H]2C[C@@H](C(=O)N[C@H](C)c3ccccc3)N(C(=O)[C@@H](NC(=O)[C@H](C)NC)C(C)(C)C)C2)C[C@H]1C(=O)N[C@H](C)c1ccccc1)C(C)(C)C [Compound P3-75] | 0.057 µM
13 | CC[C@H](C)[C@H](NC(=O)[C@H](C)NC)C(=O)N1C[C@@H](NC(=O)/C=C/C(=O)N[C@H]2C[C@@H](C(=O)N[C@H](C)c3ccccc3)N(C(=O)[C@@H](NC(=O)[C@H](C)NC)[C@@H](C)CC)C2)C[C@H]1C(=O)N[C@H](C)c1ccccc1 [Compound P3-76] | 0.036 µM
14 | CN[C@@H](C)C(=O)N[C@H](C(=O)N1C[C@@H](NC(=O)c2cccc(C(=O)N[C@H]3C[C@@H](C(=O)N[C@H](C)c4ccccc4)N(C(=O)[C@@H](NC(=O)[C@H](C)NC)C4CCCCC4)C3)c2)C[C@H]1C(=O)N[C@H](C)c1ccccc1)C1CCCCC1 [Compound P3-77] | 0.014 µM
15 | CN[C@@H](C)C(=O)N[C@H](C(=O)N1C[C@@H](NC(=O)c2cc(N)cc(C(=O)N[C@H]3C[C@@H](C(=O)N[C@H](C)c4ccccc4)N(C(=O)[C@@H](NC(=O)[C@H](C)NC)C4CCCCC4)C3)c2)C[C@H]1C(=O)N[C@H](C)c1ccccc1)C1CCCCC1 [Compound P3-78] | 0.049 µM
16 | CN[C@@H](C)C(=O)N[C@H](C(=O)N1C[C@@H](NC(=O)c2cc(N)cc(C(=O)N[C@H]3C[C@@H](C(=O)N[C@H](C)c4ccccc4)N(C(=O)[C@@H](NC(=O)[C@H](C)NC)C(C)C)C3)c2)C[C@H]1C(=O)N[C@H](C)c1ccccc1)C(C)C [Compound P3-81] | 0.058 µM
17 | CN[C@@H](C)C(=O)N[C@H](C(=O)N1C[C@@H](NC(=O)CCCCCCC(=O)N[C@H]2C[C@@H](C(=O)N[C@@H]3CCCc4ccccc43)N(C(=O)[C@@H](NC(=O)[C@H](C)NC)C(C)(C)C)C2)C[C@H]1C(=O)N[C@@H]1CCCc2ccccc21)C(C)(C)C [Compound P3-85] | 0.099 µM
18 | CN[C@@H](CO)C(=O)N[C@H](C(=O)N1C[C@@H](NC(=O)c2cccc(C(=O)N[C@H]3C[C@@H](C(=O)N[C@@H]4CCCc5ccccc54)N(C(=O)[C@@H](NC(=O)[C@H](CO)NC)C(C)(C)C)C3)c2)C[C@H]1C(=O)N[C@@H]1CCCc2ccccc21)C(C)(C)C [Compound P3-86] | 0.077 µM
19 | CN[C@@H](C)C(=O)N[C@H](C(=O)N1C[C@@H](n2cc(CCCc3cn([C@H]4C[C@@H](C(=O)N[C@H](C)c5ccccc5)N(C(=O)[C@@H](NC(=O)[C@H](C)NC)C(C)(C)C)C4)nn3)nn2)C[C@H]1C(=O)N[C@H](C)c1ccccc1)C(C)(C)C [Compound P3-87] | 0.028 µM
20 | CN[C@@H](C)C(=O)N[C@H](C(=O)N1C[C@@H](n2cc(-c3cccc(-c4cn([C@H]5C[C@@H](C(=O)N[C@H](C)c6ccccc6)N(C(=O)[C@@H](NC(=O)[C@H](C)NC)C(C)(C)C)C5)nn4)c3)nn2)C[C@H]1C(=O)N[C@H](C)c1ccccc1)C(C)(C)C [Compound P3-88] | 0.033 µM
21 | CN[C@@H](CO)C(=O)N[C@H](C(=O)N1C[C@@H](NC(=O)c2cccc(C(=O)N[C@H]3C[C@@H](C(=O)N[C@H](C)c4ccccc4)N(C(=O)[C@@H](NC(=O)[C@H](CO)NC)C(C)C)C3)c2)C[C@H]1C(=O)N[C@H](C)c1ccccc1)C(C)C [Compound P3-89] | 0.073 µM

Next, values leading:

Row | IC50 | Structure (SMILES)
22 | 0.258 µM | CN[C@@H](C)C(=O)N[C@H](C(=O)N1C[C@@H](NC(=O)C[C@H](NC(=O)OCC2c3ccccc3-c3ccccc32)C(=O)N[C@H]2C[C@@H](C(=O)N[C@@H]3CCCc4ccccc43)N(C(=O)[C@@H](NC(=O)[C@H](C)NC)C(C)(C)C)C2)C[C@H]1C(=O)N[C@@H]1CCCc2ccccc21)C(C)(C)C [Compound P3-66]
23 | 0.214 µM | CN[C@@H](C)C(=O)N[C@H](C(=O)N1C[C@@H](NC(=O)C[C@H](NC(C)=O)C(=O)N[C@H]2C[C@@H](C(=O)N[C@@H]3CCCc4ccccc43)N(C(=O)[C@@H](NC(=O)[C@H](C)NC)C(C)(C)C)C2)C[C@H]1C(=O)N[C@@H]1CCCc2ccccc21)C(C)(C)C [Compound P3-67]
24 | 0.023 µM | CN[C@@H](C)C(=O)N[C@H](C(=O)N1C[C@@H](NC(=O)c2cc(C(=O)N[C@H]3C[C@@H](C(=O)NCc4ccc(F)cc4)N(C(=O)[C@@H](NC(=O)[C@H](C)NC)C(C)(C)C)C3)[nH]n2)C[C@H]1C(=O)NCc1ccc(F)cc1)C(C)(C)C [Compound P3-72]
25 | 0.075 µM | CN[C@@H](C)C(=O)N[C@H](C(=O)N1C[C@@H](NC(=O)c2cc(OC)cc(C(=O)N[C@H]3C[C@@H](C(=O)N[C@H](C)c4ccccc4)N(C(=O)[C@@H](NC(=O)[C@H](C)NC)C(C)(C)C)C3)c2)C[C@H]1C(=O)N[C@H](C)c1ccccc1)C(C)(C)C [Compound P3-73]
26 | 0.072 µM | CC[C@H](C)C(NC(=O)[C@H](C)NC)C(=O)N1C[C@@H](NC(=O)c2cc(OC)cc(C(=O)N[C@H]3C[C@@H](C(=O)N[C@H](C)c4ccccc4)N(C(=O)C(NC(=O)[C@H](C)NC)[C@@H](C)CC)C3)c2)C[C@H]1C(=O)NC(C)c1ccccc1 (stereo partly shown) [Compound P3-74]
27 | 0.057 µM | CN[C@@H](C)C(=O)N[C@H](C(=O)N1C[C@@H](NC(=O)c2cc(C(=O)N[C@H]3C[C@@H](C(=O)N[C@H](C)c4ccccc4)N(C(=O)[C@@H](NC(=O)[C@H](C)NC)C4CCCCC4)C3)[nH]n2)C[C@H]1C(=O)N[C@H](C)c1ccccc1)C1CCCCC1 [Compound P3-79]
28 | 0.053 µM | CN[C@@H](C)C(=O)N[C@H](C(=O)N1C[C@@H](NC(=O)c2cccc(C(=O)N[C@H]3C[C@@H](C(=O)N[C@H](C)c4ccccc4)N(C(=O)[C@@H](NC(=O)[C@H](C)NC)C(C)C)C3)c2)C[C@H]1C(=O)N[C@H](C)c1ccccc1)C(C)C [Compound P3-80]
29 | 0.063 µM | CN[C@@H](C)C(=O)N[C@H](C(=O)N1C[C@@H](NC(=O)c2cc(C(=O)N[C@H]3C[C@@H](C(=O)N[C@H](C)c4ccccc4)N(C(=O)[C@@H](NC(=O)[C@H](C)NC)C(C)C)C3)[nH]n2)C[C@H]1C(=O)N[C@H](C)c1ccccc1)C(C)C [Compound P3-82]
30 | 0.196 µM | CN[C@@H](C)C(=O)N[C@H](C(=O)N1C[C@@H](NC(=O)c2cccc(C(=O)N[C@H]3C[C@@H](C(=O)N[C@H](C)C(C)C)N(C(=O)[C@@H](NC(=O)[C@H](C)NC)C(C)(C)C)C3)c2)C[C@H]1C(=O)N[C@H](C)C(C)C)C(C)(C)C [Compound P3-83]
31 | 0.1 µM | CN[C@@H](C)C(=O)N[C@H](C(=O)N1C[C@@H](NC(=O)C(O)CC(=O)N[C@H]2C[C@@H](C(=O)NC3CCCc4ccccc43)N(C(=O)[C@@H](NC(=O)[C@H](C)NC)C(C)(C)C)C2)CC1C(=O)N[C@@H]1CCCc2ccccc21)C(C)(C)C (stereo partly shown) [Compound P3-84]
